Experimental data from publication PMC11996864, “A small-molecule inhibitor of BCL10-MALT1 interaction abrogates progression of diffuse large B cell lymphoma” (The Journal of Clinical Investigation, 2025).
pIC50: −log10 of the molar value. Values joined by “and” are separate entries in the source; they are usually repeats but may differ in a detail not shown here. Equal values may be shown once. “Also recorded” adds a separate entry of the source. One block for each molecule: values may come before it.

Key:
TMD8 cells [1] = assay: CellTiter-Glo ATP viability; type: cell-based, human
Method: (§1) Cell proliferation, viability, and apoptosis assays. […]
(§2) Fluorescent Intensity (MFI) was analyzed by FlowJo (version 10.8.0, BD). CellTiter-glo luminescence assay (Promega, Cat# G7570) was used to quantify ATP levels as a surrogate marker of metabolic viability in DLBCL cells treated with compounds for 6-8 days. Annexin V Alexa 488 (ThermoFisher Scientific, Cat# A13201) and SYTOX Blue Dead Cell (ThermoFisher Scientific, Cat# S34857) stains were used to detect apoptosis in DLBCL cells after treatment with 1 µM compounds for 8 days in TMD8 and OCI-Ly1 and for 5 days in OCI-Ly3 cells, then analyzed with flow cytometry. The percentages of cells in early and late apoptosis were combined for quantification. For CellTrace Violet, CellTiter-glo, and Annexin V apoptosis assays, cell were cultured in media with 50% of the usual serum. […]

OCI-Ly1 cells = assay: CellTiter-Glo ATP viability; type: cell-based, human
Method: as §1, §2

TMD8 cells [2] = assay: CellTiter-Glo ATP viability; type: cell-based, human; remark: listed apart in the source
WT C57BL/6 mice = assay: Flow cytometry of spleen immune cell subsets after 12 days of treatment; type: in vivo, mouse; details: 50 mg/kg, vs vehicle, result in words
Method: Long-term in vivo toxicity experiments. WT C57/BL6 (The Jackson Laboratory) male and female mice were treated daily with 50 mg/kg M1i-124 or vehicle control for 28 days. At the time of sacrifice, blood was obtained for complete blood count, alanine transaminase, albumin, and total bilirubin (Abaxis). Livers from control and M1i-124 treated mice were collected for H&E analysis.
Flow cytometry. Splenocytes were isolated from WT mice after 12 days of treatment with 50 mg/kg M1i-124 or vehicle control. After obtaining a single cell suspension using […] filter, cells were stained with viability dye (Tonbo Biosciences Ghost Red 780, Fisher Healthcare, Cat #50-105-2988). After blocking with mouse BD Fc BlockTM (BD Biosciences, Cat# 553141), splenocytes were stained with a panel of antibodies including antibodies from Invitrogen (anti-CD3 APC, Cat# […]
0251-82 and anti-NK1.1 PE-Cyanine 7 Cat#25-5941-82), an antibody from BD Bioscience (anti- […]
and anti-CD4 BV711 Cat# 100557). Samples were run on a 5 laser LSR Fortessa flow cytometer and analyzed with FlowJo software.

OCI-Ly1 xenografts = assay: OCI-Ly1 xenograft in NSG mice; type: in vivo, mouse; details: daily i.p., result in words
Excerpt: TMD8 cells were engrafted into 8-week-old female NOD.CB17-Prkdc^scid/J (NOD-SCID) mice from The Jackson Laboratory by subcutaneous injection of 10 × 10^6 cells resuspended in 50% Cultrex Basement Membrane Extract (R&D Systems, catalog 3632-010-02) into the right flank. OCI-Ly3 cells were engrafted into 5-week-old female NOD.Cg-Prkdc^scid Il2rg^tm1Wjl/SzJ (NSG) mice from The Jackson Laboratory by subcutaneous injection of 2.5 × 10^6 cells resuspended in Cultrex as above. OCI-Ly1 cells were engrafted into 6.5-week-old female NSG mice from The Jackson Laboratory by subcutaneous injection of 20 × 10^6 cells resuspended in Cultrex as above. For all xenograft models, when tumors reached an average volume of 100 mm^3, mice were randomized to receive M1i-124 (50 mg/kg i.p. per day), or equivalent volume of DMSO vehicle (50 μL i.p. per day). […] Tumor size was measured 3 times a week using a caliper and calculated using the formula (smallest diameter^2 × largest diameter)/2. Mice were sacrificed 24 hours after the last injection. Mice were sacrificed when the largest tumors reached 2,500 mm^3. For TMD8 xenograft experiments, tumors and various organs, including lung, heart, liver, and kidney, were collected and fixed in 10% buffered formalin, embedded in FFPE blocks, sectioned, and stained with H&E. Sections were evaluated by a board-certified pathologist.

TMD8 cells [3] = assay: cells; parameters: species or system TMD8 or OCI-Ly3; Inhibition of spontaneous IL-10 secretion from ABC-DLBCL cells, human IL-10 ELISA of supernatants; details: Homo sapiens, TMD8, 20 h; IL-10 secretion; read-out: IC50 (µM) IL-10 inhibition
Method: Cytokine ELISAs. Cytokines in cell culture supernatants were measured 20-24h after treatment with 0, 0.01, 0.03, 0.1, 0.3, 1, or 3 µM of compounds using the following ELISA kits according to the manufacturer’s instructions: Human IL-2 ELISA (BioLegend Cat# 431804), Human IL-6 ELISA (BioLegend Cat# 430504), and Human IL-10 ELISA (BioLegend Cat# 430604). TMD8 and OCI-Ly3 cells were treated with specific doses of compounds in serum-free media for 20 hours. Jurkat T cells were pretreated with specific doses of compounds for 8 hours in serum-free media, then stimulated with PMA/ionomycin for 16 hours prior to the collection of supernatants. Mouse splenocytes were isolated from spleens of C57/BL6 mice by passing spleens through a 70 micron filter followed by red blood cell lysis using ACK lysing buffer (Quality Biologics, Cat# 118-156-101). […] Supernatant was collected at 24 hours and mouse IL-2 levels were analyzed via ELISA (R&D Systems, Cat# DY402-05). IL-6 and IL-10 are NF-κB–induced cytokines that promote the proliferation and survival of malignant B cells through both autocrine and paracrine mechanisms ([44]), and are negative prognostic factors in ABC-DLBCL ([45], [46]). ABC-DLBCL cell lines spontaneously secrete substantial levels of IL-6 and IL-10, whereas GCB-DLBCL cell lines express only a negligible amount of these cytokines ([24]). […] The IC50 for inhibition of cytokine secretion by each compound in each cell line is reported in Supplemental Table 1.  Figure 4 M1i-124 and M1i-124d1 inhibit MALT1 protease and scaffolding functions, and MALT1-dependent cytokine secretion, in ABC-DLBCL cells. (A and B) Effect of 1 μM compound pretreatment on constitutive RelB cleavage (A) and IκB phosphorylation (B) within TMD8 cells. Representative Western blots are shown along with quantification (mean ± SEM; n = 2). (C) IL6 and IL10 mRNA levels in TMD8 cells treated with 1 μM M1i-124 or M1i-124d1 (mean ± SEM; n = 6). […] Statistical analyses were performed using 1-way ANOVA and Dunnett’s multiple-comparison test. **P < 0.01, ***P < 0.001, ****P < 0.0001.

Compound: O=S(=O)(NCc1ccc2c(c1)OCO2)c1ccc(Cc2ccc(S(=O)(=O)NCc3ccc4c(c3)OCO4)cc2)cc1 [M1i-124]
pIC50 (TMD8 cells [1]; Homo sapiens, TMD8 cells, read-out: 50% cytotoxic concentration): ~6.70
viability of TMD8 cells (TMD8 cells [1]; result in words): loss of cell viability; also recorded: dose-dependent decrease in viability
CellTiter-Glo viability (% of control) (OCI-Ly1 cells; OCI-Ly1, M1i-124 (µM) 0.02): 107.27% and 98.9873% and 92.7867%
CellTiter-Glo viability (% of control) (OCI-Ly1 cells; OCI-Ly1, M1i-124 (µM) 0.05): 97.4522% and 115.002% and 102.297%
CellTiter-Glo viability (% of control) (OCI-Ly1 cells; OCI-Ly1, M1i-124 (µM) 0.1): 110.647% and 95.1607% and 118.153%
CellTiter-Glo viability (% of control) (OCI-Ly1 cells; OCI-Ly1, M1i-124 (µM) 0.2): 107.42% and 81.8681% and 81.0306%
CellTiter-Glo viability (% of control) (OCI-Ly1 cells; OCI-Ly1, M1i-124 (µM) 0.5): 117.286% and 98.6082% and 99.6544%
CellTiter-Glo viability (% of control) (OCI-Ly1 cells; OCI-Ly1, M1i-124 (µM) 1): 125.229% and 113.171% and 94.1756%
CellTiter-Glo viability (% of control) (OCI-Ly1 cells; OCI-Ly1, M1i-124 (µM) 2): 125.761% and 123.625% and 96.808%
CellTiter-Glo viability (% of control) (OCI-Ly1 cells; OCI-Ly1, M1i-124 (µM) 5): 145.729% and 138.657% and 113.755%
Percent cell viability (ATP luminescence) (TMD8 cells [2]; TMD8, M1i-124 (µM) 0.02): 98.5399% and 121.237% and 91.8987%
Percent cell viability (ATP luminescence) (TMD8 cells [2]; TMD8, M1i-124 (µM) 0.05): 110.558% and 93.9485% and 106.792%
Percent cell viability (ATP luminescence) (TMD8 cells [2]; TMD8, M1i-124 (µM) 0.1): 120.312% and 100.889%
Percent cell viability (ATP luminescence) (TMD8 cells [2]; TMD8, M1i-124 (µM) 0.2): 81.1675% and 99.7783% and 71.7208%
percentage of total lymphocytes and specific lymphocyte populations within the spleen (WT C57BL/6 mice): no difference
OCI-Ly1 xenograft growth (OCI-Ly1 xenografts): no effect

IC50 (TMD8 cells [3]): 0.2 µM
Compound: COc1ccc(CNS(=O)(=O)c2ccc(Cc3ccc(S(=O)(=O)NCc4ccc(OC)cc4)cc3)cc2)cc1 [M1i-124d1]
